From patent US5614408A, “Monoclonal antibodies to potato, tomato, and eggplant glycoalkaloids and assays for the same” (priority 1995, dated 1997)
“Also recorded” adds a separate entry of the source.

Experiments:
Format in all cases: binding, mouse
[1] = system: monoclonal antibody Sol-8; assay: competitive inhibition ELISA (c-ELISA), monoclonal antibody Sol-8; settings: Sol-8 (IgG2a); ± one standard deviation
Description: (§1) Five, 6 month old BALB/c mice were injected with 50 μl of the solanidine-KLH conjugate mixed 1:1 with Ribi adjuvant (Ribi Immunochem Research Inc., Hamilton, Mont.). The mice received half the dose intraperitoneally and half intramuscularly every other week for a total of three injections. One month later, and 4 days prior to fusion, a selected mouse was given an intraperitoneal injection of 50 μl of solanidine-KLHconjugate in sterile saline. The spleen was removed and the splenocytes fused with SP2/O myeloma cells as described by Stanker et al. (1986, J. Immunol., 136:4174-4180), the contents of which are incorporated by reference herein. The fused cells were plated over 30 96-well microculture plates previously coated with mouse peritoneal exudate cells (macrophage) and grown under conditions described by Elissalde et al. (1993, J. Agric. Food Chem., 41:2167-2171), the contents of which are also incorporated by reference herein.
(§2) db-ELISA. A modification of a direct-binding ELISA described by Stanker et al. (1993, J. Agric. Food Chem., 41:1332-1336), the contents of which are incorporated by reference herein, was used to screen the culture fluids from the growing hybridomas for antibodies to solanidine. Microtiter plates (Nunc Maxisorb, Roskilde, Denmark; or Costar high binding plates, Costar Corp., Wilmington, Mass.) were coated with SOL-BSA by addition of 100 μl/well of a 1 μg/ml solution of SOL-BSA in distilled water. The SOL-BSA was incubated in uncovered plates at 37° C. for 18 hr to evaporate the liquid and allow the SOL-BSA to coat the bottom of the microtiter wells. The "coated" plates were then stored in sealed plastic bags at 4° C. and used within 2 weeks. Nonreacted sites on the plates were blocked by adding 400 μl of a 3% solution of nonfat dry milk (NFDM) in assay buffer (0.1M Tris, 0.15M NaCl, 10 mg/ml nonfat dry milk, 0.001% Tween 20, 0.02% sodium azide) and incubating the plates at room temperature for 1 hr. The blocking solution was then discarded and 100 μl of the hybridoma supernatant(s) or anti-solanidine Mab (from ascites fluid) was added, and the plates incubated for 1 hr at 37° C. After incubation, the plates were washed with a solution of 0.05% TWEEN-20 in water, and peroxidase conjugated goat anti-mouse antiserum (Sigma Inc., St. Louis, Mo.), diluted 1:500 in assay buffer, was then added to each well. Following a second 1 hr incubation at 37° C., the plates were washed as described above. Finally, the substrate, 2,2'-azino-bis(ethylbenzthiazole-6-sulfonic acid) (ABTS), was added. Absorbance was measured at 405 nm and the resulting data analyzed by computer using an Excel (Microsoft, Redmond, Wash.) spreadsheet program.
(§3) c-ELISA. The competitive inhibition ELISA for solanidine and other glycoalkaloids was carried out as previously described for other compounds by Stanker et al. (1993, ibid). Briefly, to each well of an antigen (glycoalkaloid or aglycone) coated, non-fat-milk-blocked, microtiter plate prepared as described in the db-ELISA was added 100 μl of assay buffer. Competitors (free solanidine and other glycoalkaloids and aglycones, and four structurally related steroids cholesterol, digitonin, βsitosterol, and stigmasterol, shown in Table 1) dissolved in 100 μl of assay buffer were added to the microassay plate and serially diluted (a 2-fold series). Next, 100 μl of assay buffer containing a predetermined amount of anti-solanidine monoclonal antibody prepared above was added to each well. The amount of anti-alkaloid antibody added was the concentration (dilution from tissue culture supernatant) resulting in approximately 50% of maximum binding or signal in a direct-binding ELISA where no competitor was present. The plates were sealed with plastic wrap, incubated for 1 hr at 37° C., and then processed as described in the db-ELISA to detect bound antibody. […]

[2] = system: monoclonal antibody Sol-54; assay: competitive inhibition ELISA (c-ELISA), monoclonal antibody Sol-54; settings: Sol-54 (IgG2a); ± one standard deviation
Description: as §1, §2, §3

[3] = system: monoclonal antibody Sol-55; assay: competitive inhibition ELISA (c-ELISA), monoclonal antibody Sol-55; settings: Sol-55 (IgG2a); ± one standard deviation
Description: as §1, §2, §3

[4] = system: monoclonal antibody Sol-59; assay: competitive inhibition ELISA (c-ELISA), monoclonal antibody Sol-59; settings: Sol-59 (IgG2a); ± one standard deviation
Description: as §1, §2, §3

[5] = system: monoclonal antibody Sol-67; assay: competitive inhibition ELISA (c-ELISA), monoclonal antibody Sol-67; settings: Sol-67 (IgG1); ± one standard deviation
Description: as §1, §2, §3

[6] = system: monoclonal antibody Sol-68; assay: competitive inhibition ELISA (c-ELISA), monoclonal antibody Sol-68; settings: Sol-68 (IgG1); ± one standard deviation
Description: as §1, §2, §3

[7] = system: monoclonal antibody Sol-71; assay: competitive inhibition ELISA (c-ELISA), monoclonal antibody Sol-71; settings: Sol-71 (IgG2a); ± one standard deviation
Description: as §1, §2, §3

[8] = system: monoclonal antibody Sol-91; assay: competitive inhibition ELISA (c-ELISA), monoclonal antibody Sol-91; settings: Sol-91 (IgG2a); ± one standard deviation
Description: as §1, §2, §3

[9] = system: monoclonal antibody Sol-106; assay: competitive inhibition ELISA (c-ELISA), monoclonal antibody Sol-106; settings: Sol-106 (IgG2a); ± one standard deviation
Description: as §1, §2, §3

[10] = system: monoclonal antibody Sol-129; assay: competitive inhibition ELISA (c-ELISA), monoclonal antibody Sol-129; settings: for IC50: Sol-129 (IgG1), ± one standard deviation; for relative affinity of Sol-129 / binding by Sol-129: in words
Description: as §1, §2, §3

[11] = system: eleven monoclonal antibodies; assay: competitive inhibition ELISA (c-ELISA), all eleven monoclonal antibodies; settings: in words
Description: as §1, §2
c-ELISA. […]

[12] = system: monoclonal antibody Sol-48; assay: competitive inhibition ELISA (c-ELISA), monoclonal antibody Sol-48; settings: Sol-48 (IgG2a); ± one standard deviation
Description: as §1, §2, §3

SMILES	IC50 [1]	IC50 [2]	IC50 [3]	IC50 [4]	IC50 [5]	IC50 [6]	IC50 [7]	IC50 [8]	IC50 [9]	IC50 [10]	cross-reaction of the antibodies [11]	IC50 [12]	relative affinity of Sol-129 [10]	binding by Sol-129 [10]
CC(C)CCC[C@@H](C)[C@H]1CC[C@H]2[C@@H]3CC=C4C[C@@H](O)CC[C@]4(C)[C@H]3CC[C@]12C [cholesterol]	nc (no competition at 10,000 ppb)	nc (no competition at 10,000 ppb)	nc (no competition at 10,000 ppb)	nc (no competition at 10,000 ppb)	nc (no competition at 10,000 ppb)	nc (no competition at 10,000 ppb)	nc (no competition at 10,000 ppb)	nc (no competition at 10,000 ppb)	nc (no competition at 10,000 ppb)	nc (no competition at 10,000 ppb)	None of the eleven antibodies cross-reacted	–	–	–
C[C@H]1CC[C@@H]2[C@@H](C)[C@H]3[C@H](C[C@H]4[C@@H]5CC=C6C[C@@H](O)CC[C@]6(C)[C@H]5CC[C@]34C)N2C1 [solanidine]	46 ± 6.4 ppb	131 ± 53 ppb	60 ± 19 ppb	16 ± 1.7 ppb	15.6 ppb	489 ppb	1020 ppb	36 ± 5.7 ppb	14 ppb	2.5 ± 0.35 ppb	–	18 ± 4.4 ppb	high affinity; also recorded: lowest relative affinity	–
C[C@@H]1CC[C@@]2(NC1)O[C@H]1C[C@H]3[C@@H]4CC=C5C[C@@H](O)CC[C@]5(C)[C@H]4CC[C@]3(C)[C@H]1[C@@H]2C [solasodine]	–	–	–	–	–	–	–	–	–	–	–	–	–	binds
C[C@@H]1CC[C@@]2(NC1)O[C@H]1C[C@H]3[C@@H]4CC=C5C[C@@H](O[C@@H]6O[C@H](CO)[C@H](O)[C@H](O[C@@H]7O[C@H](CO)[C@@H](O)[C@H](O)[C@H]7O)[C@H]6O[C@@H]6O[C@@H](C)[C@H](O)[C@@H](O)[C@H]6O)CC[C@]5(C)[C@H]4CC[C@]3(C)[C@H]1[C@@H]2C [solasonine]	nc (no competition at 10,000 ppb)	nc (no competition at 10,000 ppb)	nc (no competition at 10,000 ppb)	nc (no competition at 10,000 ppb)	nc (no competition at 10,000 ppb)	nc (no competition at 10,000 ppb)	nc (no competition at 10,000 ppb)	nc (no competition at 10,000 ppb)	nc (no competition at 10,000 ppb)	36 ± 3.2 ppb	–	nc (no competition at 10,000 ppb)	high affinity	Sol-129 was the only antibody capable of binding
C[C@H]1CC[C@]2(NC1)O[C@H]1C[C@H]3[C@@H]4CC[C@H]5C[C@@H](O)CC[C@]5(C)[C@H]4CC[C@]3(C)[C@H]1[C@@H]2C [tomatidine]	nc (no competition at 10,000 ppb)	nc (no competition at 10,000 ppb)	nc (no competition at 10,000 ppb)	nc (no competition at 10,000 ppb)	nc (no competition at 10,000 ppb)	nc (no competition at 10,000 ppb)	nc (no competition at 10,000 ppb)	nc (no competition at 10,000 ppb)	nc (no competition at 10,000 ppb)	10.4 ± 2.0 ppb	–	nc (no competition at 10,000 ppb)	–	specifically bound; also recorded: Sol-129 was the only antibody capable of binding
C[C@H]1CC[C@@H]2[C@@H](C)[C@H]3[C@H](C[C@H]4[C@@H]5CC=C6C[C@@H](O[C@@H]7O[C@H](CO)[C@H](O[C@@H]8O[C@@H](C)[C@H](O)[C@@H](O)[C@H]8O)[C@H](O)[C@@H]7O[C@@H]7O[C@@H](C)[C@@H](O)[C@@H](O)[C@H]7O)CC[C@]6(C)[C@H]5CC[C@]34C)N2C1 [α-chaconine]	294 ± 34 ppb	165 ± 58 ppb	204 ± 19 ppb	25 ± 2.1 ppb	20.2 ppb	nc (no competition at 10,000 ppb)	nc (no competition at 10,000 ppb)	82 ± 5.2 ppb	54 ± 13 ppb	2.8 ± 0.2 ppb	–	323 ± 125 ppb	high affinity	–
C[C@H]1CC[C@@H]2[C@@H](C)[C@H]3[C@H](C[C@H]4[C@@H]5CC=C6C[C@@H](O[C@@H]7O[C@H](CO)[C@H](O)[C@H](O[C@@H]8O[C@H](CO)[C@@H](O)[C@H](O)[C@H]8O)[C@H]7O[C@@H]7O[C@@H](C)[C@H](O)[C@@H](O)[C@H]7O)CC[C@]6(C)[C@H]5CC[C@]34C)N2C1 [α-solanine]	253 ± 64 ppb	215 ± 32 ppb	118 ± 18 ppb	35 ± 8 ppb	27.8 ppb	nc (no competition at 10,000 ppb)	nc (no competition at 10,000 ppb)	104 ± 18 ppb	49 ± 8 ppb	2.6 ± 0.25 ppb	–	436 ± 135 ppb	high affinity	–
C[C@H]1CC[C@]2(NC1)O[C@H]1C[C@H]3[C@@H]4CC[C@H]5C[C@@H](O[C@@H]6O[C@H](CO)[C@H](O[C@@H]7O[C@H](CO)[C@@H](O)[C@H](O[C@@H]8OC[C@@H](O)[C@H](O)[C@H]8O)[C@H]7O[C@@H]7O[C@H](CO)[C@@H](O)[C@H](O)[C@H]7O)[C@H](O)[C@H]6O)CC[C@]5(C)[C@H]4CC[C@]3(C)[C@H]1[C@@H]2C [α-tomatine]	nc (no competition at 10,000 ppb)	nc (no competition at 10,000 ppb)	nc (no competition at 10,000 ppb)	nc (no competition at 10,000 ppb)	nc (no competition at 10,000 ppb)	nc (no competition at 10,000 ppb)	nc (no competition at 10,000 ppb)	nc (no competition at 10,000 ppb)	nc (no competition at 10,000 ppb)	5.4 ± 3.5 ppb	–	nc (no competition at 10,000 ppb)	approximately the same affinity as the potato glycoalkaloids	specifically bound; also recorded: Sol-129 was the only antibody capable of binding
